Legend:
Test in all cases: Z'-LYTE kinase panel
Format in all cases: biochemical
CLK2 = target: T1, CLK2 (Homo sapiens, UniProt P49760)
T1 construct: purchased ThermoFisher (SelectScreen, Z'-LYTE)
In short: (§1)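 The 225-kinase standard panel was run using the Z′-LYTE protocol, and inhibition was expressed as a percentage relative to uninhibited activity at 10 µM compound.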

EPHA8 = target: T2, EPHA8 (Homo sapiens, UniProt P29322)
T2 construct: purchased ThermoFisher (SelectScreen, Z'-LYTE)
T2 sequence (P29322 28-1005): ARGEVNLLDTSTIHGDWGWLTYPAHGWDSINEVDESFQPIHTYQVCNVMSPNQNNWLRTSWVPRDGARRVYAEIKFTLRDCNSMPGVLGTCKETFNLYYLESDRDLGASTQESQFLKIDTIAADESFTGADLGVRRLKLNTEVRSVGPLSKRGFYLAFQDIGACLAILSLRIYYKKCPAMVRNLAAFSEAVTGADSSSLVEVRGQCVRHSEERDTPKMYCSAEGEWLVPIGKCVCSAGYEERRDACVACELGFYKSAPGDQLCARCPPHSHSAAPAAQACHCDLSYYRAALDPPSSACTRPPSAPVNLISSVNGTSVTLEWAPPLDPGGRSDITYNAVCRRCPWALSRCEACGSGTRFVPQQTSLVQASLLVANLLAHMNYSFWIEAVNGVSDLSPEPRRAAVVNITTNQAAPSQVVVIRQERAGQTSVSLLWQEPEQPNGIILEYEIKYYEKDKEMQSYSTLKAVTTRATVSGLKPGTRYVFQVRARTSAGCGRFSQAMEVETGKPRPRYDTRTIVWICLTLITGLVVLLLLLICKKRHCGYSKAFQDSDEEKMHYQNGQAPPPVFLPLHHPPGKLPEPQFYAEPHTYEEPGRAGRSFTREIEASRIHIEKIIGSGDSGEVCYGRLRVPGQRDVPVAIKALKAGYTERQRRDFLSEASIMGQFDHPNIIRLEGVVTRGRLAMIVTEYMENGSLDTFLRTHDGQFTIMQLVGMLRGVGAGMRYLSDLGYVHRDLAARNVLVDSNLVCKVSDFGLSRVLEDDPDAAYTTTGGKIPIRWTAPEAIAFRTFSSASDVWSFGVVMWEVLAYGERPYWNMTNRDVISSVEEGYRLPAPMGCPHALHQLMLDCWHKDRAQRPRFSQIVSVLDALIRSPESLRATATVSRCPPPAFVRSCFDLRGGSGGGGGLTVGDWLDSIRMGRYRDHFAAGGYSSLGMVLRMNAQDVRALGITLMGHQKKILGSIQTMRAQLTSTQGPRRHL
In short: as §1

FRK (PTK5) = target: T3, FRK (PTK5) (Homo sapiens, UniProt P42685)
T3 construct: purchased ThermoFisher (SelectScreen, Z'-LYTE)
In short: as §1

IKBKB (IKK beta) = target: T4, IKBKB (IKK beta) (Homo sapiens, UniProt O14920)
T4 construct: purchased ThermoFisher (SelectScreen, Z'-LYTE)
T4 sequence (O14920 1-756): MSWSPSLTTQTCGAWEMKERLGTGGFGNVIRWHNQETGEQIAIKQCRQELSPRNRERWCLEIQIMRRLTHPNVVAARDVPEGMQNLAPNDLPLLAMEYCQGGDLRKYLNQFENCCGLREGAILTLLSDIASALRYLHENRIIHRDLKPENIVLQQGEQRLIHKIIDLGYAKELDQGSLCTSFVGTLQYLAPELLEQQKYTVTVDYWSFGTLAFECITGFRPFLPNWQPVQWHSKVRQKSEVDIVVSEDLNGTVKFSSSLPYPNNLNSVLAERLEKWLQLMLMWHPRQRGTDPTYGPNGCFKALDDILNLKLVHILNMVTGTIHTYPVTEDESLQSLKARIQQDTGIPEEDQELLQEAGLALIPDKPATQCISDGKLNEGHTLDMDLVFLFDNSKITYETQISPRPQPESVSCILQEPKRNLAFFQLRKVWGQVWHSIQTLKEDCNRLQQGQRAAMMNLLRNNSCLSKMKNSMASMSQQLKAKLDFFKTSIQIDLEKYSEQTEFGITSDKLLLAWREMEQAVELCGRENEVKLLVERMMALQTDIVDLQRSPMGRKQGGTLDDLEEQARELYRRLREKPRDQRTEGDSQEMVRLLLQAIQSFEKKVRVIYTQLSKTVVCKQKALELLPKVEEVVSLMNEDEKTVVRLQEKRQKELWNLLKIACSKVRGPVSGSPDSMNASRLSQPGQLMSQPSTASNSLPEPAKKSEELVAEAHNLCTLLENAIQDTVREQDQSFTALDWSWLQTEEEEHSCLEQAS
In short: as §1

MAP4K5 (KHS1) = target: T5, MAP4K5 (KHS1) (Homo sapiens, UniProt Q9Y4K4)
T5 construct: purchased ThermoFisher (SelectScreen, Z'-LYTE)
In short: as §1

PRKACA (PKA) = target: T6, PRKACA (PKA) (Homo sapiens, UniProt P17612)
T6 construct: purchased ThermoFisher (SelectScreen, Z'-LYTE)
In short: as §1

PRKD1 (PKC mu) = target: T7, PRKD1 (PKC mu) (Homo sapiens, UniProt Q15139)
T7 construct: purchased ThermoFisher (SelectScreen, Z'-LYTE)
T7 sequence (Q15139 1-912): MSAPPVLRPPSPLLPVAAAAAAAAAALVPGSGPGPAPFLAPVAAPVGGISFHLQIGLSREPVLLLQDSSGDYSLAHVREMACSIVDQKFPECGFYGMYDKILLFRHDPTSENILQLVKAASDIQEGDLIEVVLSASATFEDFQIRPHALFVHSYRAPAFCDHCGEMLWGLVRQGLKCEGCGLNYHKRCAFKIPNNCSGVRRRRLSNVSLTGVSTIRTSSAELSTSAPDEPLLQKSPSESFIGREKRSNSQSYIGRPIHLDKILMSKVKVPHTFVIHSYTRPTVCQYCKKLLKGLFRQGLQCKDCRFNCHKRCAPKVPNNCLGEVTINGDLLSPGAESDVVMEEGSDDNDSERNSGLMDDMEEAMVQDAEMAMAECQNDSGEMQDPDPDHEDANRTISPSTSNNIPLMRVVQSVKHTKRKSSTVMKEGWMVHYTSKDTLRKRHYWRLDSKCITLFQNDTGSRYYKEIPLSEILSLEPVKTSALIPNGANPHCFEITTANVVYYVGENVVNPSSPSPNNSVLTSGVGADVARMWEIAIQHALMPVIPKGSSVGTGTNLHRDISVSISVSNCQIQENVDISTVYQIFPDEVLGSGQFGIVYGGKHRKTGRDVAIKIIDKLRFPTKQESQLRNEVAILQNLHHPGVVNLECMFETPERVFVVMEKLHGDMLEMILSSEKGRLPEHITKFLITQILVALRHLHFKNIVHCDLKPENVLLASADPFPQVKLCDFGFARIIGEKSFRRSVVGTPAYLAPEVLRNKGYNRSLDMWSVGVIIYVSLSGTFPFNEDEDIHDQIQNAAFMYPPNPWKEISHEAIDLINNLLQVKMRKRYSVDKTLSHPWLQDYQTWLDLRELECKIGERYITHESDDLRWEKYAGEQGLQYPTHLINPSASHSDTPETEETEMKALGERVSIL
In short: as §1

T5 sequence (Q9Y4K4 whole entry): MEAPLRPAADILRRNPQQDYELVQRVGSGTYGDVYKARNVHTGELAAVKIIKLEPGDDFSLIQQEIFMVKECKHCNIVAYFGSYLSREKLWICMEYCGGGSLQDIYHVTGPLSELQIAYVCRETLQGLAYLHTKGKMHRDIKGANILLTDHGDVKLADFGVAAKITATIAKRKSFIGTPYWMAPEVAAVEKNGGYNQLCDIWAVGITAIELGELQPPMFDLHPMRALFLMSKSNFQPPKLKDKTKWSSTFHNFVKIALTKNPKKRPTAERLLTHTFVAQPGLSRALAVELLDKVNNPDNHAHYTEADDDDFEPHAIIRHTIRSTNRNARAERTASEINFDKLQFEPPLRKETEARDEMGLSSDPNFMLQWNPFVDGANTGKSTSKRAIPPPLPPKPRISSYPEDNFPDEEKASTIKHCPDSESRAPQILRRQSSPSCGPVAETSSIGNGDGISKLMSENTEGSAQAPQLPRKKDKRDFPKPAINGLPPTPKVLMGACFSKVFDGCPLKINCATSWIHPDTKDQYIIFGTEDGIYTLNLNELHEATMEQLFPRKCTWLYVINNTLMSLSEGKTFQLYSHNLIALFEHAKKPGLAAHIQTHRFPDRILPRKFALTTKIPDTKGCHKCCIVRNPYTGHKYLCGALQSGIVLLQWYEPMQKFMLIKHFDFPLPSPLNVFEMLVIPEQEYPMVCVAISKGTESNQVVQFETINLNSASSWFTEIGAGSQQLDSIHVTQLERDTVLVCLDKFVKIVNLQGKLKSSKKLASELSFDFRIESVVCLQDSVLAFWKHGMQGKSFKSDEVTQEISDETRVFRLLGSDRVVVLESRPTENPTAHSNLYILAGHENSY
T1 sequence (P49760 whole entry): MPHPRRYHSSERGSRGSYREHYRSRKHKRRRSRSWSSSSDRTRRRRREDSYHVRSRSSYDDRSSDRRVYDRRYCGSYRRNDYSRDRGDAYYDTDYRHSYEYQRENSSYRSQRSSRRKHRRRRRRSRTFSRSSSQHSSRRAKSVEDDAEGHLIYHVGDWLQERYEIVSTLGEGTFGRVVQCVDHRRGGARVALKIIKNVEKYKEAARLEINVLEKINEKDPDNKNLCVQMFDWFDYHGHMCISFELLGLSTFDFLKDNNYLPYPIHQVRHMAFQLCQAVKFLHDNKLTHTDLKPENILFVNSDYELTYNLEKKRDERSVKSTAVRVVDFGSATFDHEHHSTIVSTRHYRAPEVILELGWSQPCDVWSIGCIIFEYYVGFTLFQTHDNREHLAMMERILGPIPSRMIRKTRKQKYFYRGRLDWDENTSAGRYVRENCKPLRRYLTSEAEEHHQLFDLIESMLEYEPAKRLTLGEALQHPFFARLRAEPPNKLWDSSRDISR
T3 sequence (P42685 whole entry): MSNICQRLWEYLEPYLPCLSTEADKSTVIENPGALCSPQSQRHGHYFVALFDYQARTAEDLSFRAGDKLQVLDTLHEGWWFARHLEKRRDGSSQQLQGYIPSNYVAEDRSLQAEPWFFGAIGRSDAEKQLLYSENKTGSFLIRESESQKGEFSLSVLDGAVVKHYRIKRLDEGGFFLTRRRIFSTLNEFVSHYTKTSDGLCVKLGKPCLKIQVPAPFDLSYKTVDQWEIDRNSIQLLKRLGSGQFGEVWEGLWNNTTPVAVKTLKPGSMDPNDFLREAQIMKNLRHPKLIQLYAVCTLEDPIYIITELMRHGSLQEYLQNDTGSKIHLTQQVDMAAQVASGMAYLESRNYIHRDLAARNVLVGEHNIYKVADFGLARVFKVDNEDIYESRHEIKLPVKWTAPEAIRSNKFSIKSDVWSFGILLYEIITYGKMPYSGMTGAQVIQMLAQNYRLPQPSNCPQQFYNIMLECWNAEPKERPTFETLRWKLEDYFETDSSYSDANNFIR

**Q.** Which inhibition at 10 µM (CLK2) does the source give for `Cc1ncc(-c2nc(Nc3ccc(C(=O)NCCN4CCCCC4)cc3)ncc2F)n1C(C)C` [Compound 3] here?
**A.** Its inhibition at 10 µM is 92%.

**Q.** And the inhibition at 10 µM (EPHA8)?
**A.** The inhibition at 10 µM was 50%.

**Q.** What about the inhibition at 10 µM (FRK (PTK5)) of the same compound?
**A.** Its inhibition at 10 µM is 68%.

**Q.** And the inhibition at 10 µM (IKBKB (IKK beta))?
**A.** Its inhibition at 10 µM is 33%.

**Q.** And the inhibition at 10 µM (MAP4K5 (KHS1))?
**A.** The inhibition at 10 µM was 97%.

**Q.** What about the inhibition at 10 µM (PRKACA (PKA)) of the same compound?
**A.** Its inhibition at 10 µM is 74%.

**Q.** And the inhibition at 10 µM (PRKD1 (PKC mu))?
**A.** Its inhibition at 10 µM is 93%.

**Q.** Which results are given for `Cc1cc(Nc2nc(N)nn2C(=O)NC(C)C)ccc1Cl` [Compound 5]?
**A.** inhibition at 10 µM (CLK2): 39%; inhibition at 10 µM (EPHA8): 0.0057%; inhibition at 10 µM (FRK (PTK5)): 21%; inhibition at 10 µM (IKBKB (IKK beta)): 3.42%; inhibition at 10 µM (MAP4K5 (KHS1)): 65%; inhibition at 10 µM (PRKACA (PKA)): 1.5%; inhibition at 10 µM (PRKD1 (PKC mu)): 15%

**Q.** What does the source list for “XMD8-92 [Compound 2, reference compound]”?
**A.** CLK2 % Inhibition (CLK2; 10 µM compound, ATP Km app): 6%; EPHA8 % Inhibition (EPHA8; 10 µM compound, ATP Km app): 23%; FRK (PTK5) % Inhibition (FRK (PTK5); 10 µM compound, ATP Km app): 20%; IKBKB (IKK beta) % Inhibition (IKBKB (IKK beta); 10 µM compound, ATP Km app): 44%; MAP4K5 (KHS1) % Inhibition (MAP4K5 (KHS1); 10 µM compound, ATP Km app): 85%; PRKACA (PKA) % Inhibition (PRKACA (PKA); 10 µM compound, ATP Km app): 56%; PRKD1 (PKC mu) % Inhibition (PRKD1 (PKC mu); 10 µM compound, ATP Km app): 17%

— publication PMC4854315, “Discovery of a novel allosteric inhibitor-binding site in ERK5: comparison with the canonical kinase hinge ATP-binding site” (Acta Crystallographica. Section D, Structural Biology, 2016)
